Data on 15 compounds can be found in patent US12583815B2, “Inhibitors of YAP/TAZ-TEAD oncoproteins, synthesis and use thereof” (BRIDGENE BIOSCIENCES, INC., priority 2020, dated 2026).

The target in this assay is T1, TEAD1 (Homo sapiens, UniProt P28347).
T1 construct: endogenous in cells; host or cells: MCF-7
The assay can be described thus: TEAD1-Luciferase reporter assay (MCF-7 cell-based TEAD1-Luc assay). Particulars: cells treated with compound overnight, luciferase chemiluminescence readout. On the procedure:
TEAD1-Luciferase Reporter Assay to Characterize the Pharmacological Properties of the Tead1 Covalent Inhibitors
FIG. 1 is a schematic illustration of the mechanism of TEAD1 inhibition by the disclosed compounds, which is the theoretical basis for the development of a TEAD-YAP/TAZ cell-based functional assay to characterize the pharmacological properties of the synthesized inhibitor compounds. The MCF-7 cell-based TEAD1-Luc assay for the IC50 measurement was performed as below. Compounds 2, 4, 5, and 7, representing different chemical scaffolds, were characterized. About 200 μL of culture medium was placed in each of the 10^4 cell/well in a 96-well plate. The next day the cells were treated with the synthesized compounds for overnight. The luciferase activity was measured with a chemiluminescent assay kit. Specifically, the plate was equilibrated at room temperature. […] and 50 μL of the medium was left inside. To each well was added 50 μL Luciferase reagents. The plates were gently rocked for more than about 15 minutes at room temperature. The luminescence signal was then read and recorded. Table 2 below summarizes the measured IC50 values for the disclosed compounds.

T1 sequence (P28347 whole entry): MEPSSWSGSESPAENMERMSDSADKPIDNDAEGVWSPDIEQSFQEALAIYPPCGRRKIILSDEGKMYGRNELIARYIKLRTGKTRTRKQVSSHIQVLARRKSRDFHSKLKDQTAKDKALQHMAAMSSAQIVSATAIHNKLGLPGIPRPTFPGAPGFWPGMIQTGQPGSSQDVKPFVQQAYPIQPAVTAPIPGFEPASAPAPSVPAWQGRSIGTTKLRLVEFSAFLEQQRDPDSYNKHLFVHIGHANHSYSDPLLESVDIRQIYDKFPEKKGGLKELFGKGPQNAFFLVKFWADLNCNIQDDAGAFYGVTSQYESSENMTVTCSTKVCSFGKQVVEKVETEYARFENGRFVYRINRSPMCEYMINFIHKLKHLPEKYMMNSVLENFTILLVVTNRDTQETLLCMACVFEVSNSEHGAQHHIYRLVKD

The IC50 is the concentration needed to halve the response being measured. `C=CC(=O)Nc1ccc(-c2cc(C(F)(F)F)on2)c(C)c1` [Compound 22, N-(3-methyl-4-(5-(trifluoromethyl)isoxazol-3-yl)phenyl)acrylamide]: the IC50 was at most 100 nM.

As to `C=CC(=O)Nc1ccc(-c2cc(C(F)(F)F)on2)c(Cl)c1` [Compound 23, N-(3-chloro-4-(5-(trifluoromethyl)isoxazol-3-yl)phenyl)acrylamide], the IC50 is at most 100 nM.

In the case of `C=CC(=O)Nc1ccc(-c2cncc(C(F)(F)F)c2)cc1` [Compound 52, N-(4-(5-(trifluoromethyl)pyridin-3-yl)phenyl)acrylamide], the IC50 was at most 100 nM.

Regarding `C=CC(=O)Nc1cc(Oc2cccc(C(F)(F)F)c2)ccc1F` [Compound 37, N-(2-fluoro-5-(3-(trifluoromethyl)phenoxy)phenyl)acrylamide], the IC50 is at most 100 nM.

As for `C=C(F)C(=O)Nc1ccc2c(c1)CCC/C2=N\OCCCCC` [Compound 29, (E)-2-fluoro-N-(5-((pentyloxy)imino)-5,6,7,8-tetrahydronaphthalen-2-yl)acrylamide], the IC50 is 100 to 5000 nM.

Regarding `C=CC(=O)N[C@@H]1CC[C@H](Oc2cccc(C(F)(F)F)c2)C1` (single isomer, unassigned) [Compound 41, N-((1R*,3S*)-3-(3-(trifluoromethyl)phenoxy)cyclopentyl)acrylamide], the IC50 was at most 100 nM.

Turning to `C=CC(=O)Nc1ccc2cc(OCCCC)ccc2c1` [Compound 17, N-(6-butoxynaphthalen-2-yl)prop-2-enamide], the IC50 is at most 100 nM.

Turning to `C=CC(=O)Nc1ccc2c(c1)OCC/C2=N\OCCCCC` [Compound 16, (E)-N-(4-((pentyloxy)imino)chroman-7-yl)acrylamide], the IC50 is at most 100 nM.

In the case of `C=CC(=O)N[C@H]1CC[C@H](Oc2cccc(C(F)(F)F)c2)C1` [Compound 44, N-((1S,3S)-3-(3-(trifluoromethyl)phenoxy)cyclopentyl)acrylamide], the IC50 was 100 to 5000 nM.

Take `C=CC(=O)Nc1ccc(-c2cc(CCCC)on2)cc1` [Compound 26, N-(4-(5-butylisoxazol-3-yl)phenyl)acrylamide]: the IC50 was at most 100 nM.

In the case of `C=CC(=O)Nc1ccc2c(OCCCCC)cccc2c1` [Compound 20, N-(5-(pentyloxy)naphthalen-2-yl)acrylamide], the IC50 is at most 100 nM.

In the case of `C=CC(=O)NC1CCC(Oc2cc(C(F)(F)F)on2)C1` (stereo not drawn) [Compound 46, N-(3-((5-(trifluoromethyl)isoxazol-3-yl)oxy)cyclopentyl)acrylamide], the IC50 was 100 to 5000 nM.

`C=CC(=O)NC12CC(COc3cccc(C(F)(F)F)c3)(C1)C2` [Compound 62, N-(3-((3-(trifluoromethyl)phenoxy)methyl)bicyclo[1.1.1]pentan-1-yl)acrylamide]: the IC50 is at most 100 nM.

Consider `C=CC(=O)Nc1ccc(-c2cc(C(F)(F)F)no2)c(Cl)c1` [Compound 32, N-(3-chloro-4-(3-(trifluoromethyl)isoxazol-5-yl)phenyl)acrylamide], for which the IC50 was at most 100 nM.

Consider `C=CC(=O)Nc1cccc(OC2CCC(F)(F)CC2)c1` [Compound 40, N-(3-((4,4-difluorocyclohexyl)oxy)phenyl)acrylamide], for which the IC50 was at most 100 nM.
